Like-named read-outs stand apart in the source and are kept apart here.
Target: SARS-CoV-2 NSP3 Mac1 (Severe acute respiratory syndrome coronavirus 2, UniProt P0DTD1)
Type: binding
Design: contains a conserved macrodomain enzyme (Mac1)
Conditions: for Spearman est (compound concentration vs apparent Tm): DSF dose responsiveness, 1 µM nsp3 mac1, adj p given
Experimental: DSF and associated compound handling was performed as described ([12]), with 5 µM dye “Fluorescent Yellow” (Jacquard iDye Cat #JID1405) used in place of SYPRO Orange. Compounds were tested in triplicate, at seven concentrations in two-fold serial dilutions, at a top concentration of either 1,000 or 100 μM. To minimize experimental noise arising from plate location-based effects on Tma, all concentrations and replicates for each compound were tested within a single region of the microtiter plates, including a DMSO-only control from which ΔTmas were calculated for that compound. […] For each compound, to determine statistical significance of the dose responsive thermal shift, the Spearman’s coefficient was calculated between compound concentration and ΔTma.

[1] = maximal thermal upshift vs DMSO control

| Structure (SMILES) | DSF max dTma [1] | Spearman est (compound concentration vs apparent Tm) | DSF max dTma (maximal thermal upshift) |
| --- | --- | --- | --- |
| CN(Cc1nnc2c(=O)[nH]ccn12)c1nccc(C(F)(F)F)n1 [Z7665] | 0.55 °C |  |  |
| CN(Cc1nnc2c(=O)[nH]ccn12)c1cc(Cl)nc(C2CC2)n1 [Z7766] | 0.14 °C |  |  |
| CC1CCc2n[nH]cc2C1C(=O)N(C)OCc1ccccc1 (stereo not shown) [Z8074] | 0.54 °C |  |  |
| O=c1[nH]nc(C2CCCN(c3ncnc4[nH]c(Cl)cc34)C2)o1 (stereo not shown) [Z8387] | 1.01 °C |  |  |
| O=C1CSc2cc(C(=O)OC3c4ccccc4CC3F)ccc2N1 (stereo not shown) [Z8554] | 0.13 °C |  |  |
| O=C(Nc1cccnc1)Nc1nc2ccccc2c(=O)[nH]1 [Z8593] | 0 °C |  |  |
| O=C(NCc1nc2ccccc2c(=O)[nH]1)Nc1cccnc1 [Z8598] | 0.22 °C |  |  |
| O=C(Nc1cccnc1)Nc1ccc2ccccc2n1 [Z8614] | 0.06 °C |  |  |
| Cc1n[nH]c2ncc(CN3CC(C)Oc4c(F)cccc43)cc12 (stereo not shown) [Z8637] | 0.16 °C |  |  |
| CS(=O)(=O)C1CCCCN(c2ncnc3[nH]c4ccccc4c23)C1 (stereo not shown) [Z8648] | 0.24 °C |  |  |
| Clc1cc2c(N3CCCC(c4cccnc4)C3)ncnc2[nH]1 (stereo not shown) [Z8680] | 0.25 °C |  |  |
| NC(=O)c1ccc(CCSc2cccc(F)c2)cc1 [Z8885] | 0.09 °C |  |  |
| c1ccc2c(c1)N(c1ncnc3[nH]ccc13)CC21CC1 [Z9310] | 0 °C |  |  |
| CS(=O)(=O)C1CCCN(c2ncnc3[nH]c(Cl)cc23)C1 (stereo not shown) [Z9550] | 0.64 °C |  |  |
| c1ccc2c(-c3noc(CCCc4nc(C5CC5)no4)n3)n[nH]c2c1 [Z9652] | 0.72 °C |  |  |
| O=C(Nc1nc2ccccc2c(=O)[nH]1)c1cccnc1 [Z1082933628] |  | 0.37 |  |
| O=C(NC(C(=O)O)c1c[nH]c2ccccc12)c1ncnc2[nH]ccc12 (stereo not shown) [Z4661819162] |  | −0.51 |  |
| CCOC(=O)C(NC(=O)c1c[nH]c2ncncc12)c1c[nH]c2ccccc12 (stereo not shown) [Z4661819167] |  | 0.82 |  |
| O=C1CSc2cc(C(=O)OC3c4ccccc4CC3F)ccc2N1 (stereo not shown) [Z4718398554] |  | −0.18 |  |
| Cc1nc(Cn2cnc3c(N)nc(N)nc32)cs1 [Z4718398569] |  | 0.06 |  |
| Nc1nc(N)c2ncn(Cc3csc(Cl)n3)c2n1 [Z4718398572] |  | 0.89 |  |
| Nc1nc(N)c2ncn(Cc3csc(C4CC4)n3)c2n1 [Z4718398585] |  | 0.75 |  |
| O=C(Nc1cccnc1)Nc1nc2ccccc2c(=O)[nH]1 [Z4718398593] |  | −0.56 |  |
| O=C(NCc1nc2ccccc2c(=O)[nH]1)Nc1cccnc1 [Z4718398598] |  | −0.41 |  |
| O=C(Nc1cccnc1)Nc1ccc2ccccc2n1 [Z4718398614] |  | −0.43 |  |

| Structure (SMILES) | DSF max dTma [1] | Spearman est (compound concentration vs apparent Tm) | DSF max dTma (maximal thermal upshift) |
| --- | --- | --- | --- |
| COc1ccc(Cl)cc1Cn1cnc2c(N)ncnc21 [ZINC000110510953] |  | 0.55 |  |
| O=C1CCCN1CCSc1ncnc2[nH]cnc12 [ZINC000118179920] |  | 0.78 |  |
| CC1CN(C(=O)CCc2nc(-c3ccncc3)no2)C1c1ccccc1 (stereo not shown) [ZINC000173980856] |  | 0.61 |  |
| O=C(c1cccc(O)c1)N1CCC(Nc2ccccc2)C1 (stereo not shown) [ZINC000182324508] |  | 0.13 |  |
| Cc1cc(C(=O)C(C#N)c2nnc3n2CCCCC3)cc(O)n1 (stereo not shown) [ZINC000183202483] |  | −0.33 | 0 ˚C |
| Cc1ccc(-c2noc(C3CC(=O)N(c4cn[nH]c4)C3)n2)cc1 (stereo not shown) [ZINC000189176019] |  | −0.48 |  |
| Cc1oc(=O)oc1CSc1ncnc2[nH]cnc12 [ZINC000222377450] |  | 0.54 |  |
| c1ccc(-c2n[nH]c(Cc3noc([C@@H]4CCCO4)n3)n2)cc1 [ZINC000273900063] |  | −0.02 | 0.03 ˚C |
| OCc1cn(C2CCCN(c3ncnc4[nH]ccc34)C2)nn1 (stereo not shown) [ZINC000292637864] |  | 0.65 |  |
| O=C(c1cccc(O)c1)N1CC=C(c2ccccc2)C1 [ZINC000336444141] |  | 0.55 |  |
| Fc1ccc(F)c(Sc2ncnc3[nH]ccc23)c1 [ZINC000339235289] |  | 0.01 |  |
| Cc1nc(Cc2noc(Cc3ccc4[nH]ncc4c3)n2)no1 [ZINC000345855262] |  | −0.06 |  |
| COc1ccc(-c2nnc(NC(=O)Cc3ncccc3F)s2)cc1 [ZINC000350686468] |  | 0.17 |  |
| Cc1oc(-c2cccs2)nc1Cc1nc(-c2cncnc2N)no1 [ZINC000350813789] |  | 0.74 |  |
| CC(C)c1noc(CCc2nc(-c3ccnc4[nH]ccc34)no2)n1 [ZINC000351161347] |  | −0.81 |  |
| c1ccc2c(c1)N(c1ncnc3[nH]ccc13)CC21CC1 [ZINC000352369310] |  | −0.82 |  |
| Cc1nc(S(=O)(=O)NCc2ccc(-c3ccncc3)cc2)cn1C [ZINC000352487041] |  | 0.73 |  |
| c1ccc2c(-c3noc(CCCc4nc(C5CC5)no4)n3)n[nH]c2c1 [ZINC000356759652] |  | 0.72 |  |
| Cc1ccc(-c2noc(CCCSC3CCCNC3=O)n2)cc1F (stereo not shown) [ZINC000359061121] |  | 0.71 |  |
| Cc1ccc(NS(=O)(=O)c2ccc(C(F)(F)F)cn2)c(O)n1 [ZINC000359659274] |  | 0.61 | 0.65 ˚C |
| Cc1n[nH]c2ncc(CN3CC(C)Oc4c(F)cccc43)cc12 (stereo not shown) [ZINC000361138637] |  | 0.07 |  |
| O=C(c1c(F)ccc(O)c1F)N1CCC(Oc2cccc(F)c2)C1 (stereo not shown) [ZINC000368135547] |  | −0.88 |  |
| Cc1ccc(C(=O)N2CC[C@H](Oc3ccccc3)C2)cc1O [ZINC000371562024] |  | −0.6 |  |
| COC(=O)CC1CN(c2ncnc3[nH]ccc23)c2ccccc21 (stereo not shown) [ZINC000371804911] |  | 0.77 |  |
| CC(C(=O)N1CCCC1c1nc(C(N)=O)no1)c1cccc(F)c1 (stereo not shown) [ZINC000373034135] |  | 0.29 |  |

| Structure (SMILES) | DSF max dTma [1] | Spearman est (compound concentration vs apparent Tm) | DSF max dTma (maximal thermal upshift) |
| --- | --- | --- | --- |
| CN(c1cc(NC2CC2)ncn1)C1CCCN(c2cccnn2)C1 (stereo not shown) [ZINC000413143167] |  | −0.41 |  |
| CN(Cc1cccc(O)c1)C(=O)Cc1ccncc1 [ZINC000542791186] |  | 0.23 |  |
| NC(=O)c1ccc(Cc2noc(CCc3ccoc3)n2)cc1 [ZINC000546336511] |  | −0.79 |  |
| Nc1ncnc2c1ncn2CCCc1ccsc1 [ZINC000570815972] |  | 0.79 |  |
| CC1c2ccc(F)cc2CCN1C(=O)c1cccc(O)c1 (stereo not shown) [ZINC000679635167] |  | −0.95 |  |
| O=C(Cc1ccc2c(c1)CCO2)OCc1cc2ccccc2[nH]c1=O [ZINC000733430132] |  | −0.12 |  |
| Cc1cc(-n2cncn2)ccc1C(=O)OCC1OCCc2ccccc21 (stereo not shown) [ZINC000745413896] |  | 0.55 |  |
| CCc1noc(C(C)OC(=O)c2cccc3[nH]c(=O)oc23)n1 (stereo not shown) [ZINC000751938095] |  | −0.41 | 0.13 ˚C |
| Cc1ccc(CC(=O)OCc2noc(C3CC3)n2)cc1O [ZINC000772152995] |  | 0.02 |  |
| O=C(COC(=O)c1ccc2nsnc2c1)c1ccccc1 [ZINC000779122380] |  | 0.81 |  |
| N#Cc1cccc(-n2ccc(C(=O)OCc3cccnc3)n2)c1 [ZINC000798346395] |  | 0.61 |  |
| Nc1cc(-c2noc(CCn3cccn3)n2)ncn1 [ZINC000820965086] |  | 0.58 |  |
| O=C(Cc1ccc(-n2cccn2)cc1)OCC1CCCNC1=O (stereo not shown) [ZINC000835985505] |  | −0.14 |  |
| CS(=O)(=O)C1CCCN(c2ncnc3[nH]c(Cl)cc23)C1 (stereo not shown) [ZINC000865679550] |  | 0.71 |  |
| Clc1cc2c(N3CCCC(c4cccnc4)C3)ncnc2[nH]1 (stereo not shown) [ZINC000866018680] |  | 0.2 |  |
| CC1CCc2n[nH]cc2C1C(=O)N(C)OCc1ccccc1 (stereo not shown) [ZINC000879258074] |  | 0.45 |  |
| Cc1csc(=Nc2ccccc2)n1Cc1nnc2n1CCNC2=O [ZINC000881775356] |  | 0.59 |  |
| CN(Cc1nnc2c(=O)[nH]ccn12)c1nccc(C(F)(F)F)n1 [ZINC000882897665] |  | 0.38 |  |
| CN(Cc1nnc2c(=O)[nH]ccn12)c1cc(Cl)nc(C2CC2)n1 [ZINC000882897766] |  | −0.19 |  |
| CC1C(=O)CCCN1C(=O)c1ccnc2[nH]cnc12 (stereo not shown) [ZINC000885048835] |  | 0.23 | 0.16 ˚C |
| CNc1cc(N2CCCC(c3nc(C)no3)C2)ncn1 (stereo not shown) [ZINC000891943247] |  | 0.24 | 0.27 ˚C |
| Cc1ccccc1CC(C)c1nc(-c2cc(N)ncn2)no1 (stereo not shown) [ZINC000896334066] |  | 0.77 |  |
| c1csc(CC2CCN(c3ncnc4[nH]ccc34)C2)n1 (stereo not shown) [ZINC000897286891] |  | −0.05 |  |
| CNc1cc(-c2noc(CN3CCCC3=O)n2)ncn1 [ZINC000904236028] |  | −0.56 |  |
| Cc1nc(Cc2noc(-c3ncnc4[nH]ccc34)n2)no1 [ZINC000904346960] |  | 0.21 | 0.27 ˚C |

— PMC9926234, “Iterative computational design and crystallographic screening identifies potent inhibitors targeting the Nsp3 macrodomain of SARS-CoV-2” (Proceedings of the National Academy of Sciences of the …, 2023)
